Earlier results in patent US20240139208A1, “COMBINED PHARMACEUTICAL COMPOSITION CONTAINING CDK4/6 INHIBITOR AND USE THEREOF” (CHIA TAI TIANQING PHARMACEUTICAL GROUP CO., LTD., priority 2021, published 2024).

- solubility in water: insoluble
SMILES: C[C@]12CC[C@@H]3c4ccc(O)cc4C[C@@H](CCCCCCCCC[S+]([O-])CCCC(F)(F)C(F)(F)F)[C@H]3[C@@H]1CC[C@@H]2O (stereo partly drawn) [Fulvestrant, 7-α-[9-(4,4,5,5,5-pentafluoropentylsulfinyl)nonyl]estra-1,3,5-(10)-triene-3,17-β-diol]
